Results on six molecules are retold here after US20070116836A1, “High-Potency Sweetener Composition for Treatment and/or Prevention of Osteoporosis and Compositions Sweetened Therewith” (THE COCA-COLA COMPANY, priority 2005, published 2007).

A short description of series [1]: Rate of dissolution in H2O at 25° C. of rebaudioside A polymorph and amorphous forms. The format is physicochemical. Conditions: grade in words.
Series [2] can be described thus: Sensory evaluation of sweetness linger by expert panel, Example Set G (citric acid/potassium citrate base). Type of series: in vivo. Further details: key: 0=no sweetness linger; 1=very slight sweetness linger; 2=slight sweetness linger; 3=moderate sweetness linger; 4=moderately high sweetness linger; 5=high sweetness linger. Conditions: scale 0-5; 400 ppm REBA in citric acid/potassium citrate composition equivalent to diet lemon-lime beverage, additive per example; sugar control 8 g in 100 ml citrate buffer. As to the method:
Sensory evaluation of the samples prepared in Example Set G was carried out under the following protocol, similar to that described hereinabove. In this test protocol, none of the samples were swallowed. All samples were expectorated and the mouth was rinsed with water after the tasting. Immediately upon sensing maximal sweetness, the sample was expectorated, the mouth was rinsed with water and the rate of sweetness decay (“Sweetness Linger”) was measured, where attention was focused on the sweetness 3-4 min after the water rinse. After sample tasting was complete, a salty oyster cracker was chewed followed by a water rinse, and at least 5 minutes followed before tasting the next sample. […]
The effects of formulation change on the sweetness linger of 400 ppm REBA (equivalent to 8 g sucrose) in a citric acid/potassium citrate composition equivalent to that in a diet lemon-lime beverage were evaluated. The sweetness linger rating of this solution was determined to be 5.
8 g of sugar was dissolved in 100 ml of citrate buffer. The sweetness linger rating of this control sample was determined to be 0.

A short description of series [3]: Sensory evaluation of sweetness linger by expert panel, Example Set H (phosphoric acid base). The format is in vivo. Further details: key: 0=no sweetness linger; 1=very slight sweetness linger; 2=slight sweetness linger; 3=moderate sweetness linger; 4=moderately high sweetness linger; 5=high sweetness linger. The conditions noted are these: scale 0-5; 500 ppm REBA (H41: 360 ppm) in carbon-treated water, phosphoric acid (75%) to pH 2.4-2.5, additive per example; sugar control 10 g in 100 ml.

For the molecule rebaudioside A [Form 2], the “Rate of dissolution in H2O at 25° C.” value in series [1] is reported as “Intermediate”.
On to rebaudioside A, for which the Sweetness linger in series [2] and in series [3] was 5 throughout.
rebaudioside A [Form 3]: the “Rate of dissolution in H2O at 25° C.” value in series [1] is “High”.
Regarding `OC[C@H]1O[C@@](CO)(O[C@H]2O[C@H](CO)[C@@H](O)[C@H](O)[C@H]2O)[C@@H](O)[C@@H]1O` [sugar, sucrose], the Sweetness linger in series [2] and in series [3] was 0 throughout.
In the case of rebaudioside A [Form 1], the “Rate of dissolution in H2O at 25° C.” value in series [1] is listed as “Very low”.
On the same count and under the same terms, to rebaudioside A [Form 4] belongs “High”.
